We go through 27 compounds from ChEMBL document CHEMBL4739716, “Gpr139 receptor modulators” (2020).

For test [1], the target named is T1, Probable G-protein coupled receptor 139 (Rattus norvegicus, UniProt P0C0W8).
T1 sequence (P0C0W8 whole entry): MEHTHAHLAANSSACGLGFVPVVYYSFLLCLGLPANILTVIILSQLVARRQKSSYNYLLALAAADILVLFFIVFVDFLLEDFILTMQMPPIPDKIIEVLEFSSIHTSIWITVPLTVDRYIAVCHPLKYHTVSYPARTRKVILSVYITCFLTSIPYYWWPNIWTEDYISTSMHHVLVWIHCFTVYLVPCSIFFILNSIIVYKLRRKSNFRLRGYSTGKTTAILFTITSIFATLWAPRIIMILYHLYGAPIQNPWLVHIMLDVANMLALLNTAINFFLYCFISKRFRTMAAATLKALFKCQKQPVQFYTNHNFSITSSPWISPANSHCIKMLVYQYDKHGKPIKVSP
The experiment in a line: Agonist activity at rat GPR139 expressed in CHO-K1 cells assessed as increase in calcium flux by calcium 5 dye based FLIPR assay. Type of test: cell-based.

Test [2] deals with T2, Probable G-protein coupled receptor 139 (Homo sapiens, UniProt Q6DWJ6).
T2 sequence (Q6DWJ6 whole entry): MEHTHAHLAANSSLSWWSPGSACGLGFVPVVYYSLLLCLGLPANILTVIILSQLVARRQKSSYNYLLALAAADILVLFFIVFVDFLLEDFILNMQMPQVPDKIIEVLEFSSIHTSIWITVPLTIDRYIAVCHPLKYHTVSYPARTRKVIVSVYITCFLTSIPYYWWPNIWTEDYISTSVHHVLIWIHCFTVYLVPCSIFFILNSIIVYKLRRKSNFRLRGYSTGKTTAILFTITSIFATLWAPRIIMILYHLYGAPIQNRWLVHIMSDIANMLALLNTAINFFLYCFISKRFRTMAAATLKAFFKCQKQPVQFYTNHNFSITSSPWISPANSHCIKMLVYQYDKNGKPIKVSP
The experiment in a line: Agonist activity at human GPR139 expressed in CHO-K1 cells assessed as induction of beta-arrestin 2 recruitment incubated for 90 mins by PathHunter assay. Type of test: cell-based. For orientation: Recruitment of arrestin is a read-out of receptor activation apart from second messengers.

In test [3] the target is T3, Probable G-protein coupled receptor 139 (Homo sapiens) (UniProt Q6DWJ6).
T3 sequence (whole entry): T2 sequence (Q6DWJ6 whole entry)
Nature of the test: Agonist activity at human GPR139 expressed in CHO-K1 cells assessed as induction of beta-arrestin 2 recruitment incubated for 90 mins by PathHunter assay relative to JNJ63533054. Type of test: cell-based.

Test [4] concerns the target T2, Probable G-protein coupled receptor 139. Nature of the test: Agonist activity at human GPR139 expressed in CHO-K1 cells assessed as increase in calcium flux by calcium 5 dye based FLIPR assay. In kind it is functional, cell-based.
Test [5] has as its target T4, Probable G-protein coupled receptor 139 (Rattus norvegicus) (UniProt P0C0W8).
T4 sequence (whole entry): T1 sequence (P0C0W8 whole entry)
Nature of the test: Agonist activity at rat GPR139 expressed in CHO-K1 cells assessed as increase in calcium flux by calcium 5 dye based FLIPR assay relative to JNJ63533054. Type of test: cell-based. For orientation: Calcium assays in cells follow changes in intracellular calcium, usually with a dye or a luminescent sensor.

The target of test [6] is T3, Probable G-protein coupled receptor 139 (Homo sapiens). The experiment in a line: Agonist activity at human GPR139 expressed in CHO-K1 cells assessed as increase in calcium flux by calcium 5 dye based FLIPR assay relative to JNJ63533054. The note with it: filed as agonist. Type of test: functional, cell-based.

Broadly, the EC50 is the concentration giving half of the maximal effect. As a reminder, the Emax is the maximal effect, on the per cent scale that the assay sets.

In the case of `Cc1cnn2c(=O)n(CC(=O)N[C@@H](C)c3ccc(Cl)c(F)c3)nc2c1C`, the 50% effective concentration (EC50) in test [1], in test [2] and in test [4] was below 1 nM in each case. Also, the Emax is 50% in test [3] (filed as agonist), above 80% in test [5] (filed as agonist) and above 80% in test [6].
For the compound `Cc1ccn2c(=O)n(CC(=O)N[C@@H](C)c3ccc(Cl)c(F)c3)nc2c1`, the values for the concentration for a half-maximal effect (EC50) in test [1], in test [2] (cho-k1) and in test [4] were below 1 nM, 1 nM and below 1 nM, respectively. In addition, the maximum response (Emax) in test [3] (filed as agonist), in test [5] (filed as agonist) and in test [6] was above 80% in each case.
Take `C[C@H](NC(=O)Cn1nc2c(C3CC3)ccnn2c1=O)c1ccc(Cl)c(F)c1`: the half-maximal effective concentration (EC50) in test [1] is below 1 nM; in test [2] (cho-k1), 1 nM; in test [4], below 1 nM. The Emax in test [3] (filed as agonist), in test [5] (filed as agonist) and in test [6] was above 80% each time.
Regarding `CNc1ccnn2c(=O)n(CC(=O)N[C@@H](C)c3ccc(OC(F)(F)F)cc3)nc12`, the results for the concentration giving a half-maximal response (EC50) in test [1] (cho-k1), in test [2] (cho-k1) and in test [4] were 1 nM, 10 nM and below 1 nM, respectively. The figures for the maximal effect (Emax) in test [3] (filed as agonist), in test [5] (filed as agonist) and in test [6] were 50%, 50% and above 80%, respectively.
For `Cc1ccc([C@H](C)NC(=O)Cn2nc3ccc(F)cn3c2=O)cc1`, the concentration for a half-maximal effect (EC50) is below 1 nM in test [1], 10 nM in test [2] (cho-k1) and below 1 nM in test [4]. In addition, the Emax in test [3] (filed as agonist) was 50%; in test [5] (filed as agonist) it was above 80%; in test [6], above 80%.
Turning to `COc1cnc2nn(CC(=O)N[C@@H](C)c3ccc(OC(F)(F)F)cc3)c(=O)n2c1`, the EC50 in test [1] is at least 100 nM; in test [2] (cho-k1) it was 1 nM; in test [4] (cho-k1), 1 nM. In addition, the values for the Emax in test [3], in test [5] and in test [6] were 25%, below 25% and above 80%, respectively.
As to `C[C@H](NC(=O)Cn1nc2cc(NC3COC3)ccn2c1=O)c1ccc(Cl)c(F)c1`, the 50% effective concentration (EC50) in test [1] was below 1 nM; in test [2] (cho-k1), 1 nM; in test [4] (cho-k1), 1 nM. The Emax in test [3] (filed as agonist), in test [5] (filed as agonist) and in test [6] was above 80% each time.
`COc1cccc2nn(CC(=O)N[C@@H](C)c3ccc(OC(F)(F)F)cc3)c(=O)n12`: the EC50 in test [1] (cho-k1) was 1 nM; in test [2] (cho-k1) it was 1 nM; in test [4] it was below 1 nM. The Emax was above 80% in test [3] (filed as agonist), 50% in test [5] (filed as agonist) and above 80% in test [6].
Take `C[C@H](NC(=O)Cn1nc2ncc(Cl)cn2c1=O)c1ccc(Cl)c(F)c1`: the results for the EC50 in test [1] (cho-k1), in test [2] and in test [4] were 1 nM, at least 100 nM and below 1 nM, respectively. Moreover, the Emax is 50% in test [3] (filed as agonist), above 80% in test [5] (filed as agonist) and above 80% in test [6].
Turning to `C[C@H](NC(=O)Cn1nc2c(N3CCC34CN(C)C4)cccn2c1=O)c1ccc(Cl)c(F)c1`, the half-maximal effective concentration (EC50) in test [1] (cho-k1), in test [2] (cho-k1) and in test [4] (cho-k1) was 10 nM each time. The results for the maximal effect (Emax) in test [3], in test [5] (filed as agonist) and in test [6] were 25%, above 80% and 50%, respectively.
As to `C[C@H](NC(=O)Cn1nc2cccc(N3CCCCC3)n2c1=O)c1ccc(OC(F)(F)F)cc1`, the figures for the EC50 in test [1] (cho-k1), in test [2] and in test [4] were 1 nM, below 1 nM and below 1 nM, respectively. The maximal response (Emax) in test [3] (filed as agonist), in test [5] (filed as agonist) and in test [6] was 50% throughout.
In the case of `COc1nc2nn(CC(=O)N[C@@H](C)c3ccc(Cl)c(F)c3)c(=O)n2cc1C`, the EC50 in test [1], in test [2] and in test [4] was below 1 nM each time. Moreover, the Emax in test [3] (filed as agonist), in test [5] (filed as agonist) and in test [6] was above 80% each time.
As for `C[C@H](NC(=O)Cn1nc2cc(OC3CN(C)C3)ccn2c1=O)c1ccc(OC(F)(F)F)cc1`, the half-maximal effective concentration (EC50) in test [1] is at least 100 nM; in test [2], at least 100 nM; in test [4] (cho-k1), 10 nM. The maximal effect (Emax) is above 80% in test [3] (filed as agonist), 50% in test [5] (filed as agonist) and 50% in test [6].
With `C[C@H](NC(=O)Cn1nc2c(N3CCC34CNC4)cccn2c1=O)c1ccc(Cl)c(F)c1`, the values for the EC50 in test [1] (cho-k1), in test [2] and in test [4] (cho-k1) were 10 nM, at least 100 nM and 1 nM, respectively. The Emax in test [3] is 25%; in test [5] (filed as agonist), above 80%; in test [6] it was above 80%.
`COc1ccn2c(=O)n(CC(=O)N[C@@H](C)c3ccc(Cl)c(F)c3)nc2n1`: the results for the EC50 in test [1], in test [2] (cho-k1) and in test [4] were below 1 nM, 1 nM and below 1 nM, respectively. The maximal effect (Emax) in test [3] (filed as agonist), in test [5] (filed as agonist) and in test [6] was above 80% each time.
For the compound `C[C@H](NC(=O)Cn1nc2ncccn2c1=O)c1ccc(C2CC2)c(F)c1`, the EC50 in test [1] (cho-k1) was 10 nM; in test [2], at least 100 nM; in test [4] (cho-k1) it was 1 nM. Besides, the Emax is 50% in test [3] (filed as agonist), 25% in test [5] and above 80% in test [6].
For `C[C@H](NC(=O)Cn1nc2ccc(F)cn2c1=O)c1ccc(Cl)cc1`, the values for the EC50 in test [1], in test [2] (cho-k1) and in test [4] were below 1 nM, 1 nM and below 1 nM, respectively. Moreover, the maximum response (Emax) was 50% in test [3] (filed as agonist), 50% in test [5] (filed as agonist) and above 80% in test [6].
With `C[C@H](NC(=O)Cn1nc2ccc(C#N)cn2c1=O)c1ccc(Cl)c(F)c1`, the concentration giving a half-maximal response (EC50) in test [1] (cho-k1) is 1 nM; in test [2] (cho-k1), 1 nM; in test [4] it was below 1 nM. For the same compound, the Emax in test [3] (filed as agonist) is above 80%; in test [5] (filed as agonist), 50%; in test [6] it was above 80%.
On to `C[C@H](NC(=O)Cn1nc2cc(N3CCC(O)CC3)ccn2c1=O)c1ccc(OC(F)(F)F)cc1`, for which the values for the concentration for a half-maximal effect (EC50) in test [1] (cho-k1), in test [2] and in test [4] (cho-k1) were 1 nM, at least 100 nM and 1 nM, respectively. Moreover, the Emax is 25% in test [3], above 80% in test [5] (filed as agonist) and above 80% in test [6].
Consider `C[C@@H](NC(=O)Cn1nc2ccccn2c1=O)c1ccc(Cl)c(F)c1`, for which the EC50 in test [1] is below 1 nM; in test [2] it was at least 100 nM; in test [4], at least 100 nM. The maximum response (Emax) in test [3] was 25%; in test [5] (filed as agonist), 50%; in test [6], above 80%.
With `Cc1ccc([C@H](C)NC(=O)Cn2nc3ncccn3c2=O)cc1Cl`, the EC50 is 10 nM in test [1] (cho-k1), at least 100 nM in test [2] and 1 nM in test [4] (cho-k1). Besides, the Emax in test [3] (filed as agonist), in test [5] (filed as agonist) and in test [6] was above 80% in each case.
In the case of `C[C@H](NC(=O)Cn1nc2ncccn2c1=O)c1ccc(Cl)c(F)c1`, the EC50 in test [1] (cho-k1) was 1 nM; in test [2], at least 100 nM; in test [4] (cho-k1) it was 1 nM. Besides, the Emax in test [3] (filed as agonist) is 50%; in test [5] (filed as agonist), 50%; in test [6], above 80%.
Regarding `C[C@H](NC(=O)Cn1nc2c(N3CCOCC3)cccn2c1=O)c1ccc(Cl)c(F)c1`, the EC50 in test [1] is below 1 nM; in test [2] (cho-k1), 10 nM; in test [4], below 1 nM. Further, the values for the maximal response (Emax) in test [3] (filed as agonist), in test [5] (filed as agonist) and in test [6] were 50%, 50% and above 80%, respectively.
Regarding `Cc1ccc([C@H](C)NC(=O)Cn2nc3c(C)ccnn3c2=O)cc1F`, the EC50 was 1 nM in test [1] (cho-k1), 10 nM in test [2] (cho-k1) and below 1 nM in test [4]. For the same compound, the Emax in test [3] (filed as agonist), in test [5] (filed as agonist) and in test [6] was above 80% throughout.
On to `COc1ccn2c(=O)n(CC(=O)N[C@@H](C)c3ccc(OC(F)(F)F)cc3)nc2c1`, for which the figures for the concentration giving a half-maximal response (EC50) in test [1], in test [2] (cho-k1) and in test [4] were below 1 nM, 1 nM and below 1 nM, respectively. Moreover, the results for the Emax in test [3] (filed as agonist), in test [5] (filed as agonist) and in test [6] were above 80%, 50% and above 80%, respectively.
On to `C[C@H](NC(=O)Cn1nc2cc(Cl)ccn2c1=O)c1ccc(OC(F)(F)F)cc1`, for which the half-maximal effective concentration (EC50) in test [1], in test [2] and in test [4] was below 1 nM in each case. The maximal effect (Emax) in test [3] (filed as agonist) is 50%; in test [5] (filed as agonist) it was 50%; in test [6], above 80%.
As to `C[C@H](NC(=O)Cn1nc2cc(C#N)ccn2c1=O)c1ccc(Cl)c(F)c1`, the EC50 in test [1] (cho-k1), in test [2] (cho-k1) and in test [4] (cho-k1) was 1 nM throughout. The maximal effect (Emax) is 50% in test [3] (filed as agonist), 50% in test [5] (filed as agonist) and above 80% in test [6].
